Our source for the EC50 values is US20240018145A1, “[…]-DEPENDENT EN[…] TREATING OR […]” (priority 2020, published 2024).

One test deals with FLU A (PR/8/34). Put plainly: Flu A Neuraminidase Antiviral Assay. The class given is cell-based.
Settings: not given
As usually defined, the EC50 is the concentration needed to bring the measured effect to its halfway point. Take `CC1(c2ncc(F)cc2F)CCCC2N(CC(F)F)C(=O)c3c(O)c(=O)ccn3N21` (single isomer, unassigned) [Compound 47B, 5-(2,2-difluoroethyl)-1-(3,5-difluoropyridin-2-yl)-7-hydroxy-1-methyl-1,2,3,4,4a,5-hexahydrodipyrido[1,2-b:2′,1′-f][1,2,4]triazine-6,8-dione]: the EC50 stood at 4380 nM.

On to `CN1C(=O)c2c(O)c(=O)ccn2N2C1CCC1(CCC(C(F)(F)F)CC1)C2c1ccccc1` (single isomer, unassigned) [Compound 73C, 7′-hydroxy-5′-methyl-1′-phenyl-4-(trifluoromethyl)-3′,4′,4a′,5′-tetrahydro-1′H-spiro[cyclohexane-1,2′-dipyrido[1,2-b:2′,1′-f][1,2,4]triazine]-6′,8′-dione], for which the response was half-maximal at 105 nM (EC50).

In the case of `CN1C(=O)c2c(O)c(=O)ccn2N2C(c3c(F)cccc3F)CCCC12` (single isomer, unassigned) [Compound 7A, 1-(2,6-difluorophenyl)-7-hydroxy-5-methyl-1,2,3,4,4a,5-hexahydrodipyrido[1,2-b:2′,1′-f][1,2,4]triazine-6,8-dione], the EC50 was greater than 8100 nM.

In turn, `CN1C(=O)c2c(O)c(=O)ccn2N2C1CCCC2(C)c1cccc(OC(F)F)c1` (single isomer, unassigned) [Compound 51B, 1-(3-(difluoromethoxy)phenyl)-7-hydroxy-1,5-dimethyl-1,2,3,4,4a,5-hexahydrodipyrido[1,2-b:2′,1′-f][1,2,4]triazine-6,8-dione] returned an EC50 of 16.3 nM.

In the case of `Cc1ccccc1C1C(CCC(F)(F)F)CCC2N(C)C(=O)c3c(O)c(=O)ccn3N12` (single isomer, unassigned) [Compound 95A, 7-hydroxy-5-methyl-1-(o-tolyl)-2-(3,3,3-trifluoropropyl)-1,2,3,4,4a,5-hexahydrodipyrido[1,2-b:2′,1′-f][1,2,4]triazine-6,8-dione], the EC50 is 137 nM.

`CN1C(=O)c2c(O)c(=O)ccn2N2C1CCC1(CC(F)(F)C1)C2c1ccccc1` (single isomer, unassigned) [Compound 74B, 3,3-difluoro-7′-hydroxy-5′-methyl-1′-phenyl-3′,4′,4a′,5′-tetrahydro-1′H-spiro[cyclobutane-1,2′-dipyrido[1,2-b:2′,1′-f][1,2,4]triazine]-6′,8′-dione] showed an EC50 of 15.7 nM.

Turning to `CN1C(=O)c2c(O)c(=O)ccn2N2C(c3ccccc3)C(c3ccc(F)c(F)c3F)CCC12` (single isomer, unassigned) [Compound 85D, 7-hydroxy-5-methyl-1-phenyl-2-(2,3,4-trifluorophenyl)-1,2,3,4,4a,5-hexahydrodipyrido[1,2-b:2′,1′-f][1,2,4]triazine-6,8-dione], the response was half-maximal at 218 nM (EC50).

Regarding `CCC1(c2ccccc2)CCCC2N(C)C(=O)c3c(O)c(=O)ccn3N21` (single isomer, unassigned) [Compound 22D, 1-ethyl-7-hydroxy-5-methyl-1-phenyl-1,2,3,4,4a,5-hexahydrodipyrido[1,2-b:2′,1′-f][1,2,4]triazine-6,8-dione], the EC50 was found to be 11 nM.

In the case of `CN1C(=O)c2c(O)c(=O)ccn2N2C(c3ccccc3)CCCCC12` (single isomer, unassigned) [Compound 57B, 4-hydroxy-6-methyl-11-phenyl-6a,7,8,9,10,11-hexahydro-3H-pyrido[1′,2′:1,6][1,2,4]triazino[2,3-a]azepine-3,5(6H)-dione], the EC50 was greater than 8100 nM.

`CN1C(=O)c2c(O)c(=O)ccn2N2C1CCCC2(C)c1cccc(F)c1` (single isomer, unassigned) [Compound 25B, 1-(3-fluorophenyl)-7-hydroxy-1,5-dimethyl-1,2,3,4,4a,5-hexahydrodipyrido[1,2-b:2′,1′-f][1,2,4]triazine-6,8-dione] displayed an EC50 of 70.7 nM.

For the molecule `Cc1c(F)cccc1C1C(CC(F)(F)F)CCC2N(C)C(=O)c3c(O)c(=O)ccn3N12` (single isomer, unassigned) [Compound 80B, 1-(3-fluoro-2-methylphenyl)-7-hydroxy-5-methyl-2-(2,2,2-trifluoroethyl)-1,2,3,4,4a,5-hexahydrodipyrido[1,2-b:2′,1′-f][1,2,4]triazine-6,8-dione], the response was half-maximal at 3.3 nM (EC50).

On to `Cc1ccccc1C1C(CC(F)(F)F)CCC2N(C)C(=O)c3c(O)c(=O)ccn3N12` (single isomer, unassigned) [Compound 120B, 7-hydroxy-5-methyl-1-(o-tolyl)-2-(2,2,2-trifluoroethyl)-1,2,3,4,4a,5-hexahydrodipyrido[1,2-b:2′,1′-f][1,2,4]triazine-6,8-dione], for which a half-maximal effect (EC50) was put at 1.9 nM.

In turn, `CN1C(=O)c2c(O)c(=O)ccn2N2C(c3ccccc3)C(CC3CC3(F)F)CCC12` (single isomer, unassigned) [Compound 114B, 2-((2,2-difluorocyclopropyl)methyl)-7-hydroxy-5-methyl-1-phenyl-1,2,3,4,4a,5-hexahydrodipyrido[1,2-b:2′,1′-f][1,2,4]triazine-6,8-dione] registered an EC50 greater than 8100 nM.

For the molecule `CC1(c2ccccc2)CCCC2N(CC3CC3)C(=O)c3c(O)c(=O)ccn3N21` (single isomer, unassigned) [Compound 37A, 5-(cyclopropylmethyl)-7-hydroxy-1-methyl-1-phenyl-1,2,3,4,4a,5-hexahydrodipyrido[1,2-b:2′,1′-f][1,2,4]triazine-6,8-dione], the EC50 was found to be 11.4 nM.

As for `CN1C(=O)c2c(O)c(=O)ccn2N2C(c3ccccc3)C(c3cccc(F)c3F)CCC12` (single isomer, unassigned) [Compound 116B, 2-(2,3-difluorophenyl)-7-hydroxy-5-methyl-1-phenyl-1,2,3,4,4a,5-hexahydrodipyrido[1,2-b:2′,1′-f][1,2,4]triazine-6,8-dione], the EC50 came out at 6.9 nM.

With `CN1C(=O)c2c(O)c(=O)ccn2N2C(c3ccccc3Cl)C(CCO)CCC12` (stereo not shown) [Compound 66A, 1-(2-chlorophenyl)-7-hydroxy-2-(2-hydroxyethyl)-5-methyl-1,2,3,4,4a,5-hexahydrodipyrido[1,2-b:2′,1′-f][1,2,4]triazine-6,8-dione], the EC50 was greater than 8100 nM.

With `CN1C(=O)c2c(O)c(=O)ccn2N2C1CCC1(CCC(F)(F)CC1)C2c1ccccc1` (single isomer, unassigned) [Compound 72B, 4,4-difluoro-7′-hydroxy-5′-methyl-1′-phenyl-3′,4′,4a′,5′-tetrahydro-1′H-spiro[cyclohexane-1,2′-dipyrido[1,2-b:2′,1′-f][1,2,4]triazine]-6′,8′-dione], the midpoint of the response, the EC50, lay at 3.8 nM.

For `CN1C(=O)c2c(O)c(=O)ccn2N2C(c3ccccc3C(F)(F)F)CCCC12` (single isomer, unassigned) [Compound 14B, 7-hydroxy-5-methyl-1-(2-(trifluoromethyl)phenyl)-1,2,3,4,4a,5-hexahydrodipyrido[1,2-b:2′,1′-f][1,2,4]triazine-6,8-dione], the EC50 was greater than 8100 nM.

Molecule `Cc1cccc(C2(C)CCCC3N(CC(F)F)C(=O)c4c(O)c(=O)ccn4N32)n1` (single isomer, unassigned) [Compound 54A, 5-(2,2-difluoroethyl)-7-hydroxy-1-methyl-1-(6-methylpyridin-2-yl)-1,2,3,4,4a,5-hexahydrodipyrido[1,2-b:2′,1′-f][1,2,4]triazine-6,8-dione] returned an EC50 greater than 810 nM.

`CCN1C(=O)c2c(O)c(=O)cc(COC)n2N2C(c3ccccc3)C(CC(F)(F)F)CCC12` (stereo not shown) [Compound 131E, 5-ethyl-7-hydroxy-10-(methoxymethyl)-1-phenyl-2-(2,2,2-trifluoroethyl)-1,2,3,4,4a,5-hexahydrodipyrido[1,2-b:2′,1′-f][1,2,4]triazine-6,8-dione] had an EC50 of 6.8 nM.

Take `CCN1C(=O)c2c(O)c(=O)ccn2N2C(c3ccccc3)C(c3ccc(F)c(F)c3)CCC12` (single isomer, unassigned) [Compound 94B, 2-(3,4-difluorophenyl)-5-ethyl-7-hydroxy-1-phenyl-1,2,3,4,4a,5-hexahydrodipyrido[1,2-b:2′,1′-f][1,2,4]triazine-6,8-dione]: the concentration giving a half-maximal response (EC50) worked out at 8.6 nM.

Consider `CN1C(=O)c2c(O)c(=O)ccn2N2C(c3c(F)cccc3F)CCCC12` (single isomer, unassigned) [Compound 7B, 1-(2,6-difluorophenyl)-7-hydroxy-5-methyl-1,2,3,4,4a,5-hexahydrodipyrido[1,2-b:2′,1′-f][1,2,4]triazine-6,8-dione], for which a half-maximal response (EC50) required 256 nM.

Turning to `CN1C(=O)c2c(O)c(=O)ccn2N2C1CCC(O)C2(C)c1ccccc1` (stereo not shown) [Compound 137D, 2,7-dihydroxy-1,5-dimethyl-1-phenyl-1,2,3,4,4a,5-hexahydrodipyrido[1,2-b:2′,1′-f][1,2,4]triazine-6,8-dione], it took 49.3 nM to reach a half-maximal effect (EC50).

For the molecule `CC1CC2N(C)C(=O)c3c(O)c(=O)ccn3N2C(C)(c2ccccc2)C1` (single isomer, unassigned) [Compound 43B, 7-hydroxy-1,3,5-trimethyl-1-phenyl-1,2,3,4,4a,5-hexahydrodipyrido[1,2-b:2′,1′-f][1,2,4]triazine-6,8-dione], the EC50 was 1100 nM.

Still in this test, the particulars now being: MDCK, 48 h.
Consider `CC(C)O[C@@H]1CC[C@H]2N(C)C(=O)c3c(O)c(=O)ccn3N2[C@@H]1c1ccccc1` [Compound 156, (1R,2R,4aS)-7-hydroxy-2-isopropoxy-5-methyl-1-phenyl-1,2,3,4,4a,5-hexahydrodipyrido[1,2-b:2′,1′-f][1,2,4]triazine-6,8-dione], for which a half-maximal response (EC50) required 38 nM.

Take `CC(C)CCO[C@@H]1CC[C@H]2N(C)C(=O)c3c(O)c(=O)ccn3N2[C@@H]1c1ccccc1` [Compound 161, (1R,2R,4aS)-7-hydroxy-2-(isopentyloxy)-5-methyl-1-phenyl-1,2,3,4,4a,5-hexahydrodipyrido[1,2-b:2′,1′-f][1,2,4]triazine-6,8-dione]: a half-maximal effect (EC50) was put at 120 nM.

The molecule `CCN1C(=O)c2c(O)c(=O)cc(COC)n2N2C(c3ccccc3)C(CC(F)(F)F)CCC12` (single isomer, unassigned) [Compound 131A, 5-ethyl-7-hydroxy-10-(methoxymethyl)-1-phenyl-2-(2,2,2-trifluoroethyl)-1,2,3,4,4a,5-hexahydrodipyrido[1,2-b:2′,1′-f][1,2,4]triazine-6,8-dione] had an EC50 greater than 810 nM.

`CC(C)CC1CC(c2ccccc2)N2C(C1)N(C)C(=O)c1c(O)c(=O)ccn12` (stereo not shown) [Compound 130B, 7-hydroxy-3-isobutyl-5-methyl-1-phenyl-1,2,3,4,4a,5-hexahydrodipyrido[1,2-b:2′,1′-f][1,2,4]triazine-6,8-dione] had a concentration for a half-maximal effect (EC50) of 1410 nM.
